The values below come from publication PMC5107132 (European journal of pharmacology, 2016).

Molecules are shown by their SMILES. Marks after values point to notes of the source that are not given here.

The data set has as its system Wistar rats. Nature of the data set: Rotarod test. The format is in vivo, rat. Particulars: 15 mg/kg MP-III-022 in combination with 15 mg/kg flumazenil (FLU), i.p. A general note: In the rotarod test animals must keep their balance on a rotating rod.

Take `C#Cc1ccc2c(c1)C(c1ccccc1F)=N[C@H](C)c1c(C(=O)NC)ncn1-2` [MP-III-022, (R)-8-Ethynyl-6-(2-fluorophenyl)-N,4-dimethyl-4H-benzo[f]imidazo[1,5-a][1,4]diazepine-3-carboxamide]: the “Rotarod, time remaining on the rod revolving at 15 rpm” value is listed as 175.17 ± 4.83^a,d s.
